Source: article PMC3944516, “Isolation and Characterization of Anti-Adenoviral Secondary Metabolites from Marine Actinobacteria” (Marine Drugs, 2014)
Entries after “also recorded” stand apart in the source; their conditions may differ.

Tests used:
[1] = system: A549 cells; assay: XTT based cytotoxicity test on A549 cells; type: cell-based, human; conditions: for concentration above which the viability of the cells is significantly reduced: A549 cells, XTT (Figure 8C)
Source text: (§1) Consideration of cellular cytotoxicity is essential when identifying antiviral compounds. Compounds that negatively interfere with the proliferation or viability of host cells will be recorded as false positives when assayed for antiviral activity. […] The XTT test measures the ability of mitochondrial enzymes to reduce 2,3-bis-(2-methoxy-4-nitro-5-sulfophenyl)-2H-tetrazolium-5-carboxanilide to a colored formazan dye that is spectrophotometrically quantified. […] Strikingly, butenolide 4 with the non-functionalized side-chain affected the viability dramatically. At both 400 and 800 μM of 4 the percentage of viable cells was close to zero, whereas for butenolide 1–3 the cells were as viable as the DMSO control at the concentrations tested. […] To further elucidate this difference and determine whether the cytotoxicity was cell type specific, we performed a dose-response experiment and investigated the cytotoxicity on human diploid fibroblasts derived from foreskin (FSU). FSU cells are isolated from the dermis of juvenile foreskin and, unlike A549 cells, are not derived from carcinoma, but primary cells with a limited expected number of cell divisions. […] However, the butenolide 4 with a non-functionalized side-chain reduced the viability of A549 cells and FSU cells to almost zero at 400 and 800 μM. […] The reason for the steep concentration dependence on cytotoxicity for the butenolide 4 containing a non-functionalized side-chain is presently unknown, and the large difference in cytotoxic potential between 4 and the other analogs is noteworthy when considering the minor structural differences in their side-chains.
(§2) The potential cytotoxic effect of the compounds was determined with XTT-based Cell Proliferation Kit II (Roche Applied Science, Penzberg, Germany). This method is a colorimetric assay based on the cleavage of the tetrazolium salt XTT to a soluble formazan salt by viable cells. Approximately, 13,000 A549 cells were seeded per well in 96-well plates on the day before addition of compounds. The next day, the growth medium was removed from the wells and replaced with 100 μL of phenol-red free DMEM with 2% FBS containing compound. In parallel, an amount of DMSO corresponding to the same amount of test compound was added to the cells and the plate was incubated at 37 °C for 20 h. Subsequently, 50 μL of XTT solution was added per well and the plate was incubated at 37 °C for 4 h and finally the intensity of the formazan dye was measured by spectrophotometry at a wavelength of 490 nm.

[2] = system: HAdV type 5; assay: quantitative real-time PCR (qPCR) anti-adenoviral dose-response assay; type: cell-based, human adenovirus type 5 (strain F2853-5b) in A549 cells; conditions: for anti-adenoviral activity (in words): dose-response up to 0.4 mM, qPCR 24 h post infection (Figure 8B); for EC50: Human mastadenovirus C, A549 host cells, qPCR of viral genomes after 24 h, duplicates
Experimental: In order to confirm the antiviral activity observed during the screening campaign (Figure 3) and determine the EC50 values of the analogs, we conducted a dose-response experiment by a standardized quantitative real-time PCR (qPCR) assay (Figure 5). In this assay, the number of adenoviral genomes is assessed in relationship to the number of cells and the replication of HAdV type 5 on A549 host cells was assessed.
Figure 5 Dose-response study of the identified compounds on HAdV type 5. Each concentration point was run in duplicate and qPCR-analysis performed after 24 h. The amount of HAdV type 5 genomes in each treated sample was compared to infected but non-treated samples to obtain the inhibition of the percentage of control (y-axis). See the experimental section for details.
The quantitative Real Time PCR (qPCR) assay was performed as previously described. Briefly, A549 cells in 24 well plates (Nunc™ #142475) were infected with HAdV type 5 (1 pg per cell) and incubated with compound for 24 h. Thereafter, cellular and viral DNA was prepared using a QIAamp DNA blood minikit (Qiagen, Solna, Sweden) and quantitative real-time PCR was used to detect newly synthesized viral DNA and the inhibitory effect of the compounds. The principle of quantitative real-time PCR and the design of primers and probes for analysis of various HAdV types representing different adenovirus species have previously been described. Quantitative real-time PCR was carried out using a primer pair and a FAM-labeled probe detecting and amplifying the viral hexon gene. The amount of detected viral hexon DNA was normalized to the cellular RNaseP gene. Real-time PCR was performed in an ABI Prism 7900HT sequence detector and analyzed with Sequence Detector software version 2.4 (Applied Biosystems®, Life Technologies, Grand Island, NY, USA).
Determination of the EC50 values was performed with non-linear regression analysis with a variable slope using GraphPad Prism software version 6.0c (GraphPad Software, San Diego, CA, USA).

[3] = XTT based cytotoxicity test on A549 cells; type: cell-based, human; conditions: human, A549 cells, 24 h, XTT, normalized against DMSO controls, two independent experiments; for viability at 24 h, 400 µM: read-out: % Viable Cells at 400 μM; for viability at 24 h, 800 µM: read-out: % Viable Cells at 800 μM
Source text: as §1, §2

[4] = system: HAdV 5 virions; assay: virucidal assay; type: cell-based, human adenovirus type 5 in A549 cells; conditions: virions incubated with 200 μM for 2 h before infection, qPCR after 24 h
Experimental: (§3) Figure 7 Characterization of the antiviral activity of the butenolide ketone 3. The antiviral activity of the compounds was obtained by comparing the amount of HAdV type 5 genomes per cell to non-treated but infected control samples (y-axis). (A) Time-of-addition assay where 200 μM of butenolide ketone 3 was added at different time points in comparison to the addition of HAdV 5 at time 0 h. Samples were analyzed 24 h after the infection (+24 h) with qPCR; (B) Binding assay with ^35S-labelled HAdV 5 virions, with 200 μM compound 3 pretreated A549 cells for 1.5 h prior time-of-infection (TOI) and no pretreatment; (C) Virucidal assay where HAdV 5 virions were pretreated with 200 μM of butenolide ketone 3 prior addition to A549 cells and analyzed after 24 h.
This was primarily to investigate in which stage of the viral infectious cycle that the butenolide ketone 3 inhibited and consequently to reduce the number of possible drug-targets for further mode-of-action analysis. […]
The HAdV type 5 stock was diluted in DMEM (Sigma-Aldrich, St. Louis, MO, USA) with 2% FBS (Gibco®, Life Technologies, Grand Island, NY, USA) to the appropriate concentration to be added per well. […] In parallel, an identical mixture with no incubation time was added to wells as a control and the antiviral activity was analyzed 24 h post infection with qPCR assay.

[5] = system: HAdV 5 virions binding to A549 cells; assay: binding assay with 35S-labelled HAdV 5 virions; type: cell-based, human adenovirus type 5 in A549 cells; conditions: A549 cells pre-treated with 200 μM for 1.5 h, compared to the control
Experimental: as §3
This was primarily to investigate in which stage of the viral infectious cycle that the butenolide ketone 3 inhibited and consequently to reduce the number of possible drug-targets for further mode-of-action analysis. […] Simultaneous addition of 200 μM of 3 and virus (0 h) reduced the viral replication to below 20%, which is consistent with Figure 5. […]
^35S labelling of HAdV 5 was performed as previously described as well as the binding experiment. […] The cell-associated radioactivity was measured using a liquid scintillation counter (Wallac 1409, Perkin-Elmer, Waltham, MA, USA).

[6] = system: HAdV type 5; assay: time-of-addition assay (qPCR); type: cell-based, human adenovirus type 5 in A549 cells
Experimental: as §3, with “24 h. […]” for “24 h.”
The quantitative Real Time PCR (qPCR) assay was performed as previously described. […] Thereafter, cellular and viral DNA was prepared using a QIAamp DNA blood minikit (Qiagen, Solna, Sweden) and quantitative real-time PCR was used to detect newly synthesized viral DNA and the inhibitory effect of the compounds. The principle of quantitative real-time PCR and the design of primers and probes for analysis of various HAdV types representing different adenovirus species have previously been described. Quantitative real-time PCR was carried out using a primer pair and a FAM-labeled probe detecting and amplifying the viral hexon gene. […]

[7] = system: FSU cells (human diploid fibroblasts derived from foreskin); assay: XTT based cytotoxicity dose-response on FSU cells; type: cell-based; conditions: 24 h
Source text: as §1
Figure 6 The cytotoxicity profile of butenolide ketone 3 and butenolide 4 with a non-functionalized side chain, on two cell lines, A549 cells and FSU cells, analyzed after 24 h. See experimental section for details.
as §2

In the case of `CC[C@H](C)CCCCC[C@H]1CCC(=O)O1` [Compound 6], the “concentration above which the viability of the cells is significantly reduced” value ([1]; 24 h) is reported as “above 0.4 mM” and the “anti-adenoviral activity (in words)” value [2] is reported as “eliminated the antiviral activity”.
With `C[C@H](O)[C@H](C)CCCCC[C@H]1C=CC(=O)O1` [Compound 1a] the viability at 24 h, 400 µM [3] was 98 ± 6%, the viability at 24 h, 800 µM [3] was 96 ± 4% and the EC50 [2] was 113 µM.
In the case of `CC(=O)[C@H](C)CCCCC[C@H]1C=CC(=O)O1` [Compound 3], the “virucidal activity (in words)” value [4] is reported as “did not differ between the pretreated and non-pretreated virions”, the viability at 24 h, 400 µM [3] is reported as 102 ± 5% and the viability at 24 h, 800 µM [3] is reported as 101 ± 3%. For the same compound, the “cytotoxicity (in words)” value ([1]; XTT, concentrations tested) was “no cytotoxicity”, the “binding of the virus to the cells (in words)” value [5] was “did not reduce the binding of the virus to the cells” and the EC50 [2] was 91 µM. The “viral replication, % of non-treated infected control” value ([6]; 200 μM added simultaneously with virus (0 h), qPCR 24 h after infection) was “below 20%”, the “effect on viral infection (in words)” value ([6]; cells pre-incubated with 200 μM for four hours prior to the addition of virus, qPCR at 24 h) was “completely blocked the viral infection” and the “cytotoxicity at the highest concentration (in words)” value ([7]; 2 mM, XTT (Figure 6)) was “no prominent cytotoxicity; also recorded: did not affect the viability of FSU cells to a great extent”.
In the case of `CCC(C)CCCCCC1C=CC(=O)O1` (centres unmarked) [Compound 4], the viability at 24 h, 400 µM [3] is reported as 3 ± 1%, the viability at 24 h, 800 µM [3] is reported as 3 ± 1% and the “viability of A549 cells (in words)” value ([1]; 100 μM, 24 h, XTT (Figure 6)) is reported as “in line with untreated DMSO control”. For the same compound, the “cytotoxicity on A549 cells (in words)” value ([1]; 200 μM, 24 h, XTT (Figure 6)) was “toxicity was strongly decreased”, the “viability of A549 cells (in words)” value ([1]; 400 and 800 μM, 24 h, XTT) was “close to zero” and the “concentration above which the viability of the cells is significantly reduced” value ([1]; 24 h) was “above 0.2 mM”. The “concentration showing cytotoxicity relative to EC50” value ([1]; cytotoxic concentration compared with the EC50 on HAdV type 5) was “approximately three times its EC50 value”, the EC50 [2] was 90 µM and the “viability of FSU cells (in words)” value ([7]; 100 μM, XTT (Figure 6)) was “in line with untreated DMSO control”. The “cytotoxicity on FSU cells (in words)” value ([7]; 200 μM, XTT (Figure 6)) was “toxicity was strongly decreased” and the “viability of FSU cells (in words)” value ([7]; 400 and 800 μM, XTT) was “almost zero”.
For `CC(=O)[C@H](C)CCCCC[C@H]1CCC(=O)O1` [Compound 5], the “anti-adenoviral activity (in words)” value [2] was “eliminated the antiviral activity”.
In the case of `CCC(C)(O)CCCCC[C@H]1C=CC(=O)O1` (some centres unmarked) [Compound 2], the viability at 24 h, 400 µM [3] is reported as 106 ± 7%, the viability at 24 h, 800 µM [3] is reported as 100 ± 3% and the EC50 [2] is reported as 183 µM.
